Measured values from PubChem BioAssay (NCI).
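Assay format: 96-well plates, 48-hour exposure. GI50 is the concentration that inhibits growth by half. TGI marks complete inhibition of growth.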

How the values were obtained:
Experiment in all cases: NCI tumour cell line growth inhibition, 48 h
[1] = system: A498 renal
[2] = system: SK-MEL-2 melanoma
[3] = system: MALME-3M melanoma
[4] = system: SW-620 colon
[5] = system: HOP-92 NSCLC
[6] = system: 786-0 renal
[7] = system: UACC-62 melanoma
[8] = system: OVCAR-8 ovarian
[9] = system: HCT-116 colon
[10] = system: KM12 colon

Row | SMILES | GI50 [1] | TGI [1] | GI50 [2] | TGI [2] | GI50 [3] | TGI [3] | GI50 [4] | TGI [4] | GI50 [5] | TGI [5] | GI50 [6] | TGI [6] | GI50 [7] | TGI [7] | GI50 [8] | TGI [8] | GI50 [9] | TGI [9] | TGI [10] | GI50 [10]
1 | COC(C)(C)C/C=C/C(C)=C/C=C/C(C)=C\C=C\C(C)=C\C=C\C=C(C)\C=C\C=C(C)\C=C\C=C(C)\C=C\CC(C)(C)OC | > 150 µg/mL | > 150 µg/mL | > 150 µg/mL | > 150 µg/mL | > 150 µg/mL | > 150 µg/mL | > 150 µg/mL | > 150 µg/mL | > 150 µg/mL | > 150 µg/mL | > 150 µg/mL | > 150 µg/mL | > 150 µg/mL | > 150 µg/mL | > 150 µg/mL | > 150 µg/mL | > 150 µg/mL | > 150 µg/mL | – | –
2 | O=C(NC12CC3CC(CC(C3)C1)C2)C(=O)c1c[nH]c2ccccc12 | – | – | – | 32.3 µM | – | 28.3 µM | – | – | – | 28.8 µM | – | 25.8 µM | – | 26.5 µM | – | – | – | 30.5 µM | 28.5 µM | –
3 | CN(C)CCCNC(=O)c1cc(NC(=O)c2cc(NC(=O)CCNS(=O)(=O)c3ccc4c(c3)C(=O)c3ccccc3C4=O)cn2C)cn1C | > 100 µM | > 100 µM | > 100 µM | > 100 µM | – | – | > 100 µM | > 100 µM | > 100000 nM | > 100 µM | > 100000 nM | > 100 µM | > 100000 nM | > 100 µM | > 100000 nM | > 100 µM | – | – | > 100 µM | > 100000 nM
4 | Clc1ccc(C(n2cc(Br)cn2)n2cc(Br)cn2)cc1 | – | 33.1 µM | – | 33.2 µM | – | 31.7 µM | – | 34.6 µM | – | 30.6 µM | – | 27.8 µM | – | 28.7 µM | – | 36.5 µM | – | – | 31.6 µM | –
5 | CC(=O)C1=C(O)CC2CC3c4[nH]c5ccccc5c4CCN3CC2C1 (centres undefined) | – | > 100 µM | – | > 100 µM | – | > 100 µM | – | > 100 µM | – | – | – | > 100 µM | – | – | – | > 100 µM | – | > 100 µM | > 100 µM | –
6 | O=c1c2cc(Cl)ccc2sc2cccc(Cl)c12 | – | > 100 µM | – | > 100 µM | – | – | – | > 100 µM | – | > 100 µM | – | > 100 µM | – | > 100 µM | – | > 100 µM | – | > 100 µM | > 100 µM | –
7 | CC(=O)OCc1cc2ccccc2nc1C(Br)(Br)Br | – | 42.8 µM | – | 41.9 µM | – | 18.1 µM | – | 44.8 µM | – | 31.2 µM | – | 46 µM | – | 32.2 µM | – | – | – | 31.6 µM | 27.6 µM | –
8 | CCOC(=O)c1c2c(n3ccccc13)C(=O)c1ncccc1C2=O | – | – | 8.23 µM | 90.3 µM | 56.1 nM | 4.56 µM | – | – | 279 nM | 28.9 µM | 180 nM | 13.8 µM | 33.7 nM | 1.39 µM | 58.1 nM | 6 µM | 42.4 nM | 2.33 µM | 75.9 µM | 270 nM
9 | CCOc1ccc2nc(NC(=O)C(=O)C(c3cnc4ccccc4n3)[N+](=O)[O-])sc2c1 (centres undefined) | – | > 100 µM | – | > 100 µM | – | > 100 µM | – | – | – | > 100 µM | – | > 100 µM | – | > 100 µM | – | > 100 µM | – | > 100 µM | > 100 µM | –
10 | NC(N)=NS(=O)(=O)c1ccc(NCCc2c3ccccc3nc3ccccc23)cc1 | – | – | – | > 100 µM | – | > 100 µM | – | > 100 µM | – | > 100 µM | – | > 100 µM | – | – | – | > 100 µM | – | > 100 µM | > 100 µM | –
